# Data: publication PMC6792352, “Limited Chemical Structural Diversity Found to Modulate Thyroid Hormone Receptor in the Tox21 Chemical Library” (Environmental Health Perspectives, 2019)
# Where a name gives a salt, the structure may show the parent alone.
# Test: in vitro
# Details: rat, gh3-tre-luc cells, AC50 (uM) modified / 1000
row,Compound,CC50 at 24 h
1,CO[C@H]1C[C@H](O[C@@H]2/C(C)=C/C[C@@H]3C[C@@H](C[C@]4(CC[C@H](C)[C@@H](C5CCCCC5)O4)O3)OC(=O)[C@@H]3C=C(C)/C(=N/O)[C@H]4OC/C(=C\C=C\[C@@H]2C)[C@]43O)O[C@@H](C)[C@@H]1O [Selamectin],33.2 µM
2,COS(=O)(=O)OC [Dimethyl sulfate],> 90 µM
3,C[C@H](O)CN(C)C [(S)-(+)-1-Dimethylamino-2-propanol],> 50 µM
4,O=C(O)c1cc(N=Nc2ccc([N+](=O)[O-])cc2)ccc1O [Alizarin Yellow R],58 µM
5,CC(=O)O[C@H]1CC[C@@]2(C)C(=CC[C@@H]3[C@@H]2CC[C@]2(C)C(c4cccnc4)=CC[C@@H]32)C1 [Abiraterone acetate],> 50 µM
6,"CC(C)=CCCC(C)CCOC=O (centres unmarked) [3,7-Dimethyloct-6-en-1-yl formate]",> 90 µM
7,CNC1(c2ccccc2Cl)CCCCC1=O (centres unmarked) [Ketamine],> 50 µM
8,CC(S)C(=O)NCC(=O)O (centres unmarked) [Tiopronin],> 50 µM
9,CCc1ccc2c(c1)C(=O)c1ccccc1C2=O [2-Ethylanthraquinone],> 90 µM
10,CNCC[C@@H](Oc1ccccc1C)c1ccccc1 [Atomoxetine hydrochloride],44.9 µM
11,"CC(=O)CC/C=C(\C)CCC=C(C)C [6,10-Dimethyl-5,9-undecadiene-2-one]",> 90 µM
12,CC(CN1CC(=O)NC(=O)C1)N1CC(=O)NC(=O)C1 (centres unmarked) [ICRF-159],> 90 µM
13,"C=CC(C)(CCC=C(C)C)OC(=O)CC (centres unmarked) [3,7-Dimethylocta-1,6-dien-3-yl propanoate]",> 90 µM
14,O=C(CCCN1CCC(O)(c2ccc(Br)cc2)CC1)c1ccc(F)cc1 [Bromperidol],> 20 µM
15,COCC(C)N (centres unmarked) [1-Methoxy-2-propylamine],> 90 µM
16,CC(=O)O[C@H]1CC[C@@]2(C)C(=CC[C@H]3[C@@H]4CC[C@H](C(C)=O)[C@@]4(C)CC[C@@H]32)C1 [3beta-Acetoxy-5-pregnene-20-one],> 50 µM
17,"CCC(C)(C)C [2,2-Dimethylbutane]",> 100 µM
18,C[C@]12C=CC(=O)C=C1[C@@H](F)C[C@@H]1[C@@H]2[C@@H](O)C[C@@]2(C)[C@H]1CC[C@]2(O)C(=O)CO [Fluprednisolone],> 50 µM
19,COc1cc(C[C@@H]2NCCc3cc(O)c(O)cc32)cc(OC)c1OC [Trimethoquinol],> 50 µM
20,"CCCCCCCCCC[N+](C)(C)[O-] [N,N-Dimethyldecylamine oxide]",> 90 µM
21,CCOC(=O)CN[C@@H](C(=O)N1CC[C@H]1C(=O)NCc1ccc(/C(N)=N\O)cc1)C1CCCCC1 [Ximelagatran],> 50 µM
22,COC(=O)c1ccc(O)cc1 [Methylparaben],> 90 µM
23,COC(=O)c1ccccc1C [Methyl 2-methylbenzoate],> 90 µM
24,NS(=O)(=O)c1cc(-c2nnn[nH]2)c(NCc2cccs2)cc1Cl [Azosemide],> 50 µM
25,Cc1[nH]c(=O)c(C#N)cc1-c1ccc2nccn2c1 [Olprinone hydrochloride],> 50 µM
26,COc1ccccc1OCC1CNC(=O)O1 (centres unmarked) [Mephenoxalone],> 50 µM

row,Compound,CC50 at 24 h
1,CCc1ccc(C(=O)NN(C(=O)c2cc(C)cc(C)c2)C(C)(C)C)cc1 [Tebufenozide],2.75 µM
2,CCN(CC)CCNC(=O)c1ccc(N)cc1 [Procainamide hydrochloride],> 90 µM
3,Cn1nnnc1SCC1=C(C(=O)O)N2C(=O)[C@@H](NC(=O)[C@H](OC=O)c3ccccc3)[C@H]2SC1 [Cefamandole nafate],> 50 µM
4,O=C(Nc1ccccc1)c1ccccc1O [Salicylanilide],> 90 µM
5,COc1cc(N)c(Cl)cc1C(=O)NC1CCN(Cc2ccccc2)CC1 [Clebopride maleate],> 20 µM
6,"FC(F)(F)c1ccc(Cl)cc1Cl [2,4-Dichlorobenzotrifluoride]",> 90 µM
7,"CCC(C)C1N=C(C)C(C)S1 (centres unmarked) [2-(2-Butyl)-4,5-dimethyl-3-thiazoline]",> 90 µM
8,C=CC[C@]1(O)CC[C@H]2[C@@H]3CCC4=CCCC[C@@H]4[C@H]3CC[C@@]21C [Allylestrenol],41.6 µM
9,CC(=O)Nc1c(I)c(C(=O)N[C@H]2C(O)O[C@H](CO)[C@@H](O)[C@@H]2O)c(I)c(N(C)C(C)=O)c1I (some centres unmarked) [Metrizamide],> 20 µM
10,CC(=O)OC[C@H]1O[C@@](COC(C)=O)(O[C@H]2O[C@H](COC(C)=O)[C@@H](OC(C)=O)[C@H](OC(C)=O)[C@H]2OC(C)=O)[C@@H](OC(C)=O)[C@@H]1OC(C)=O [Sucrose octaacetate],> 70 µM
11,Cc1ccc(S(=O)(=O)NC(=O)NC2CCCCC2)cc1 [Glycyclamide],> 50 µM
12,Oc1c(I)cc(I)c2cccnc12 [Iodoquinol],> 50 µM
13,Nc1nc(Cl)nc2c1ncn2[C@@H]1O[C@H](CO)[C@@H](O)[C@@H]1F [Clofarabine],0.263 µM
14,"O=C1OC(=O)C2C3C=CC(C3)C12 (centres unmarked) [2-Norbornene-5,6-dicarboxylic anhydride]",> 90 µM
15,CCCCCOC(C)=O [Pentyl acetate],> 90 µM
16,CCCCCCCCOC(=O)c1ccc(C(=O)OCCCCCCCC)c(C(=O)OCCCCCCCC)c1 [Trioctyl trimellitate],> 90 µM
17,C=C(C)C(=O)OCCOCC [2-Ethoxyethyl methacrylate],> 90 µM
18,CCC(C)N (centres unmarked) [2-Butanamine],> 90 µM
19,CCCCCCCC/C=C\CCCCCCCCO [(9Z)-Octadec-9-en-1-ol],> 90 µM
20,O=CC(=O)c1ccccc1 [Phenylglyoxal],> 90 µM
21,"OCCCCCCO [1,6-Hexanediol]",> 90 µM
22,CN(C)CCCN [3-(Dimethylamino)propylamine],> 90 µM
23,CC1=CC[C@H]2C[C@@H]1C2(C)C [(-)-alpha-Pinene],> 90 µM
24,NCc1ccccc1 [Benzylamine],> 90 µM
25,C=CCCC(=O)/C=C/C1C(C)=CCCC1(C)C (centres unmarked) [Allyl Ionone],80.7 µM
26,COc1c2occc2cc2ccc(=O)oc12 [8-Methoxypsoralen],> 50 µM

row,Compound,CC50 at 24 h
1,COc1ccc2cc(S(=O)(=O)N[C@H](CC(=O)N[C@H](Cc3ccc(CN4[C@H](C)CCC[C@@H]4C)cc3)C(=O)N(C)C(C)C)c3ccc4c(c3)OCO4)ccc2c1 [SSR 240612],4.04 µM
2,Nc1nc(N)nc(N)n1 [Melamine],> 90 µM
3,Cc1cccc(C)c1N(CCCc1cccnc1)C(=O)C(C)N (centres unmarked) [Ro 22-9194],> 50 µM
4,C=CC(C)(CCC=C(C)C)OC(C)=O (centres unmarked) [Linalyl acetate],> 90 µM
5,CCCc1ccc(C(=O)O)cc1 [4-Propylbenzoic acid],> 50 µM
6,O=C(CN1CCN(Cc2ccc3c(c2)OCO3)CC1)N1c2ccccc2Sc2ccccc21 [Fenoverine],23.4 µM
7,CC[C@@]1(O)C[C@H](O[C@H]2C[C@H](N(C)C)[C@H](O[C@H]3C[C@H](O)[C@H](O[C@H]4CCC(=O)[C@H](C)O4)[C@H](C)O3)[C@H](C)O2)c2c(cc3c(c2O)C(=O)c2c(O)cccc2C3=O)[C@H]1C(=O)OC [Aclarubicin hydrochloride],0.114 µM
8,"CC(=O)CC(=O)Nc1ccc2[nH]c(=O)[nH]c2c1 [3-Oxo-N-(2-oxo-2,3-dihydro-1H-benzimidazol-5-yl)butanamide]",> 90 µM
9,Cc1ccc(-c2ncc(Cl)cc2-c2ccc(S(C)(=O)=O)cc2)cn1 [Etoricoxib],> 50 µM
10,CN(C(=O)CCCOc1ccc2[nH]c(=O)ccc2c1)C1CCCCC1 [Cilostamide],> 50 µM
11,C[Si](C)(C)Cl [Chlorotrimethylsilane],> 90 µM
12,O=C1C(=O)c2ncccc2-c2cccnc21 [Phanquinone],1.78 µM
13,CN1CCN(c2ccccc2/C=C2\SCCN(c3ccc(Cl)c(Cl)c3)C2=O)CC1 [Elzasonan],8.33 µM
14,CC[N+](CC)(CC)CCOc1ccc(/C=C/c2ccccc2)cc1 [Stilonium iodide],> 50 µM
15,CC1(C)CNC(=NN=C(/C=C/c2ccc(C(F)(F)F)cc2)/C=C/c2ccc(C(F)(F)F)cc2)NC1 [Hydramethylnon],11.2 µM
16,CCOCCO [2-Ethoxyethanol],> 90 µM
17,Cc1ccccc1C=O [2-Tolualdehyde],> 90 µM
18,CC(C)CCO [Isopentyl alcohol],> 90 µM
19,O=P(O)(O)C(O)(Cn1ccnc1)P(=O)(O)O [Zoledronate],> 50 µM
20,CCN(CCC#N)c1ccc(N=Nc2c(Cl)cc([N+](=O)[O-])cc2Cl)cc1 [C.I. Disperse Orange 37],33.4 µM
21,OCC(O)CN1CCN(c2ccccc2)CC1 (centres unmarked) [Dropropizine],> 50 µM
22,CC(C)(C)NCC(O)c1ccccc1Cl (centres unmarked) [Tulobuterol hydrochloride],> 50 µM
23,CC(NCCC(c1ccccc1)c1ccccc1)c1ccccc1 (centres unmarked) [Fendiline hydrochloride],6.49 µM
24,"CN(C)c1ccc(Cc2ccc(N(C)C)cc2)cc1 [4,4'-Methylenebis(N,N-dimethylaniline)]",> 90 µM
25,CN(C)C(=O)Oc1cc(OC(=O)N(C)C)cc(C(O)CNC(C)(C)C)c1 (centres unmarked) [Bambuterol hydrochloride],> 20 µM
26,FC(F)(F)c1cccc(Cl)c1 [3-Chlorobenzotrifluoride],> 90 µM

# Same assay, conditions: rat, gh3-tre-luc cells, AC50 (uM) modified / 1000, Tox21_110001=Tox21_113313; viability, 1 nM T3 present, 24 h
row,Compound,CC50 at 24 h
1,O=C(O)CCCCCCNC1c2ccccc2CCc2ccccc21 [Amineptine],> 50 µM

# Same assay, conditions: rat, gh3-tre-luc cells, AC50 (uM) modified / 1000, Tox21_110001=Tox21_201664; viability, 1 nM T3 present, 24 h
row,Compound,CC50 at 24 h
1,CC(C)OC(=O)Nc1ccccc1 [Propham],> 90 µM

# Same assay, conditions: rat, gh3-tre-luc cells, AC50 (uM) modified / 1000, Tox21_110001=Tox21_202927; viability, 1 nM T3 present, 24 h
row,Compound,CC50 at 24 h
1,CCCCON=O [N-Butylnitrite],> 90 µM

# Same assay, conditions: rat, gh3-tre-luc cells, AC50 (uM) modified / 1000, Tox21_110001=Tox21_300253; viability, 1 nM T3 present, 24 h
row,Compound,CC50 at 24 h
1,O=C(NC(=O)c1cc(F)c(F)cc1Cl)Nc1cc(F)ccc1N1CCC(C(=O)O)CC1 [AVE2865],> 50 µM

# Same assay, conditions: rat, gh3-tre-luc cells, AC50 (uM) modified / 1000, Tox21_110001=Tox21_301160; viability, 1 nM T3 present, 24 h
row,Compound,CC50 at 24 h
1,CCOP(=S)(OCC)Oc1ccc(Cl)cc1Cl [Dichlofenthion],> 90 µM
